Results from patent US20250188082A1, “Use of Hypoxanthine Compound In Preparation of Drug For Treating Pulmonary Fibrosis” (Sichuan Yiasuo Pharmaceutical Technology Co., Ltd., priority 2022, published 2025).
Read-outs that look alike come from different tables or passages of the source.

How the values were obtained:
Assay type in all cases: in vivo, C57BL/6 mice
[1] = test system: influenza A virus-induced pulmonary fibrosis model (FM1 strain of influenza A (H1N1) virus); assay: Influenza A virus-induced pulmonary fibrosis model; conditions: 120 mg/kg/d intragastric, 14 days; for Ashcroft scores: influenza A virus + bleomycin, lung tissue HE; for IL-1β / IL-6 / NF-κB / TNF-α: serum, influenza A (H1N1) FM1 + bleomycin, from two weeks after model
Excerpt: Experimental method: an in-vivo influenza A virus-induced pulmonary fibrosis model was established: C57BL/6 mice (with weights being 22-25 g) were randomly and evenly divided into a plurality of groups, including blank control group, model group, Nintedanib positive control group, hypoxanthine analogue A group, hypoxanthine analogue B group, hypoxanthine analogue C group, compound 1 group, compound 2 group . . . compound 12 group, with 9 mice in each group. On Day 1, the mice in blank control group were instilled with normal saline nasally, and the mice in other groups were all infected with a FM1 strain of an influenza A (H1N1) virus 30 (μL) through nasal instillation. On Day 2, the mice received 5 mg/kg bleomycin through tracheas to induce their pulmonary fibrosis. After the model was established for two weeks, the mice in each group were intragastrically administrated for intervention for consecutive 14 days; the mice in blank control group and model group intragastrically received the same dosage of the normal saline as those in drug groups; the mice in Nintedanib positive control group received Nintedanib (120 mg/kg); the mice in hypoxanthine analogue A group, hypoxanthine analogue B group and hypoxanthine analogue C group respectively received hypoxanthine analogue A (120 mg/kg/d), hypoxanthine analogue B (120 mg/kg/d) and hypoxanthine analogue C (120 mg/kg/d); and the mice in compound 1 group, compound 2 group . . . compound 12 group respectively received compound 1 (120 mg/kg/d), compound 2 (120 mg/kg/d) . . . compound 12 (120 mg/kg/d) prepared in example 1. After administration for consecutive 14 days, the mice were observed every day, and their weights and death conditions were recorded. After administration, blood was taken from eyeballs for immediately detecting the expression levels of NF-κB, TNF-α, IL-1 and IL-6 in serum, and lung tissues were taken for HE detection and Ashcroft scoring.

[2] = test system: bleomycin-induced pulmonary fibrosis model; assay: Comparison with comparative drugs: bleomycin-induced model, hydroxyproline and TGF-β; conditions: 120 mg/kg/d intragastric, twice every day, 14 days, from two weeks after model; Day 15
[3] = test system: bleomycin-induced pulmonary fibrosis model; assay: Early pulmonary fibrosis: bleomycin-induced model, dosing from one week after modelling; conditions: for Leucocyte / Lymphocyte / Neutrophil / Ashcroft scores: early pulmonary fibrosis, 120 mg/kg/d intragastric, 14 days, from one week after model; for Leucocyte / Lymphocyte / Neutrophil: blood, Day 15, twice every day; for Ashcroft scores: lung tissue HE staining; for inhibition (anti-inflammatory) effect on leucocytes, neutrophils and lymphocytes in blood: mice with early pulmonary fibrosis, result in words
[4] = test system: influenza B virus-induced pulmonary fibrosis model (influenza B (H7N9) virus); conditions: 120 mg/kg/d intragastric, 14 days; for Ashcroft scores: influenza B virus + bleomycin, lung tissue HE; for IL-1β / NF-κB / TNF-α / IL-6: serum, from two weeks after model; for IL-1β / NF-κB / TNF-α: influenza B (H7N9) + bleomycin; for IL-6: influenza B + bleomycin
[5] = test system: coronavirus-induced pulmonary fibrosis model (HcoV-OC43); assay: Coronavirus-induced pulmonary fibrosis model; conditions: 120 mg/kg/d intragastric, 14 days; for Ashcroft scores: coronavirus HcoV-OC43 + bleomycin, lung tissue HE; for IL-1β / IL-6 / NF-κB / TNF-α: serum, HcoV-OC43 + bleomycin, from two weeks after model
Excerpt: Experimental method: an in-vivo coronavirus-induced pulmonary fibrosis model mice was established: C57BL/6 mice (with weights being 22-25 g) were randomly and evenly divided into a plurality of groups, including blank control group, model group, Nintedanib positive control group, hypoxanthine analogue A group, hypoxanthine analogue B group, hypoxanthine analogue C group, compound 1 group, compound 2 group . . . compound 12 group, with 9 mice in each group. On Day 1, the mice in the blank control group were instilled with normal saline nasally, and the mice in other groups were all infected with HcoV-OC43 coronavirus strains (30 μL) through nasal instillation. On Day 2, the mice received 5 mg/kg bleomycin through tracheas to induce their pulmonary fibrosis. After the model was established for two weeks, the mice in each group were intragastrically administrated for intervention for consecutive 14 days; the mice in blank control group and model group intragastrically received the same dosage of the normal saline as those in drug groups; the mice in Nintedanib positive control group received Nintedanib (120 mg/kg); the mice in hypoxanthine analogue A group, hypoxanthine analogue B group and hypoxanthine analogue C group respectively received hypoxanthine analogue A (120 mg/kg/d), hypoxanthine analogue B (120 mg/kg/d) and hypoxanthine analogue C (120 mg/kg/d); and the mice in compound 1 group, compound 2 group . . . compound 12 group respectively received compound 1 (120 mg/kg/d), compound 2 (120 mg/kg/d) . . . compound 12 (120 mg/kg/d) prepared in example 1. After administration for consecutive 14 days, the mice were observed every day, and their weights and death conditions were recorded. After administration, blood was taken from eyeballs for immediately detecting the expression levels of NF-κB, TNF-α, IL-1 and IL-6 in serum, and lung tissues were taken for HE detection and Ashcroft scoring.

Compound: COc1ncnc2c1ncn2C(C)C [Hypoxanthine analogue C, reference compound]
- Ashcroft scores ([1]; 120 mg/kg/day): 6.09
- IL-1β ([1]; 120 mg/kg/day): 338.1 pg/mL
- IL-6 ([1]; 120 mg/kg/day): 450.0 pg/mL
- NF-κB ([1]; 120 mg/kg/day): 782.1 pg/mL
- TNF-α ([1]; 120 mg/kg/day): 333.1 pg/mL
- Hydroxyproline in bronchoalveolar lavage fluids [2]: 1.12 ± 0.15 µg/mg
- Hydroxyproline in lung tissues [2]: 2.85 ± 0.25 µg/mg
- TGF-β in bronchoalveolar lavage fluids [2]: 7.42 ± 1.4 µg/L
- TGF-β in lung tissues [2]: 63.83 ± 7.52 µg/L
- Leucocyte ([3]; 120 mg/kg/day): 50.11 10^9/L
- Lymphocyte ([3]; 120 mg/kg/day): 50.06 10^9/L
- Neutrophil ([3]; 120 mg/kg/day): 37.04 10^9/L
- Ashcroft scores ([3]; 120 mg/kg/day): 5.46
- inhibition (anti-inflammatory) effect on leucocytes, neutrophils and lymphocytes in blood [3]: obviously inferior
- Ashcroft scores ([4]; 120 mg/kg/day): 6.15
- IL-1β ([4]; 120 mg/kg/day): 241.9 pg/mL
- NF-κB ([4]; 120 mg/kg/day): 632.4 pg/mL
- TNF-α ([4]; 120 mg/kg/day): 198.9 pg/mL
- IL-6 ([4]; 120 mg/kg/day): 194.9 pg/mL
- Ashcroft scores ([5]; 120 mg/kg/day): 6.31
- IL-1β ([5]; 120 mg/kg/day): 530.1 pg/mL
- IL-6 ([5]; 120 mg/kg/day): 530.9 pg/mL
- NF-κB ([5]; 120 mg/kg/day): 729.6 pg/mL
- TNF-α ([5]; 120 mg/kg/day): 449.1 pg/mL

Compound: COC(=O)c1ccc2c(c1)NC(=O)/C2=C(\Nc1ccc(N(C)C(=O)CN2CCN(C)CC2)cc1)c1ccccc1 [Nintedanib, reference compound]
- Ashcroft scores [1]: 4.27
- IL-1β [1]: 220.7 pg/mL
- IL-6 [1]: 349.1 pg/mL
- NF-κB [1]: 625.2 pg/mL
- TNF-α [1]: 243.6 pg/mL
- Hydroxyproline in bronchoalveolar lavage fluids [2]: 1.25 ± 0.14 µg/mg
- Hydroxyproline in lung tissues [2]: 2.36 ± 0.12 µg/mg
- TGF-β in bronchoalveolar lavage fluids [2]: 7.11 ± 0.24 µg/L
- TGF-β in lung tissues [2]: 75.32 ± 7.51 µg/L
- Leucocyte [3]: 33.76 10^9/L
- Lymphocyte [3]: 33.87 10^9/L
- Neutrophil [3]: 31.32 10^9/L
- Ashcroft scores [3]: 3.69
- inhibition (anti-inflammatory) effect on leucocytes, neutrophils and lymphocytes in blood [3]: obviously inferior
- Ashcroft scores [4]: 4.08
- IL-1β [4]: 166.3 pg/mL
- NF-κB [4]: 529.7 pg/mL
- TNF-α [4]: 141.3 pg/mL
- IL-6 [4]: 176.1 pg/mL
- Ashcroft scores [5]: 4.11
- IL-1β [5]: 525.3 pg/mL
- IL-6 [5]: 421.5 pg/mL
- NF-κB [5]: 521.3 pg/mL
- TNF-α [5]: 411.3 pg/mL
